Molecular target: human APJ receptor (Homo sapiens (Human), UniProt P35414)
Assay: [35S]GTPγS binding assay on membranes from CHO cells stably expressing human APJ receptor
Assay type: biochemical
Conditions: membranes of CHO cells stably expressing human APJ receptor, read-out: Activity hAPJ SPA EC50 IP
Summary of the method: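 [35S]GTPγS binding measured on membranes from CHO cells stably expressing FLAG-tagged human APJ, with GDP, MgCl2 and NaCl levels optimized beforehand. Incubation 90 min at RT, imager read-out; EC50 from non-linear regression, averaged over several independent experiments.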

Chain of human APJ receptor (P35414 whole entry): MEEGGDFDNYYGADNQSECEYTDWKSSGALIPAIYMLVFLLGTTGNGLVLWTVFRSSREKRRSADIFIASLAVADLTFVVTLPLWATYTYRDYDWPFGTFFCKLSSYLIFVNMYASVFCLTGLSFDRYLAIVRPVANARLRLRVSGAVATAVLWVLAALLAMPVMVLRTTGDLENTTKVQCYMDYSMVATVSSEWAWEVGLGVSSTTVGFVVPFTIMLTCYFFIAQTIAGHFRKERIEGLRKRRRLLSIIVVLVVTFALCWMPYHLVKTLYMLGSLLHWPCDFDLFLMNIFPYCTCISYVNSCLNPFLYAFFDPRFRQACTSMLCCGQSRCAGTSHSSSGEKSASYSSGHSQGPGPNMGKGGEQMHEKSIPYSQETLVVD

`CC[C@@H](c1conc1C)n1c(NS(=O)(=O)[C@@H](C)[C@H](C)c2ncc(Cl)cn2)nnc1-c1cccc(OC)n1` (mixture of isomers) [Example 227.0, (2S,3R)-3-(5-chloro-2-pyrimidinyl)-N-(5-(6-methoxy-2-pyridinyl)-4-((1R)-1-(3-methyl-1,2-oxazol-4-yl)propyl)-4H-1,2,4-triazol-3-yl)-2-butanesulfonamide and (2S,3R)-3-(5-chloro-2-pyrimidinyl)-N-(5-(6-methoxy-2-pyridinyl)-4-((1S)-1-(3-methyl-1,2-oxazol-4-yl)propyl)-4H-1,2,4-triazol-3-yl)-2-butanesulfonamide] gave an EC50 of 4.5 nM.
Work on `COC[C@@H](C)n1c(NS(=O)(=O)[C@@H](C)[C@H](C)c2ncc(Cl)cn2)nnc1-c1cccnc1` (single isomer, unassigned) [Example 53.0] yielded an EC50 of 30 nM.
`COC[C@@H](C)n1c(NS(=O)(=O)[C@@H](C)[C@@H](OC(C)C)c2ncc(Cl)cn2)nnc1-c1cccc(OC)n1` [Example 178.0, (1S,2S)-1-(5-chloro-2-pyrimidinyl)-N-(4-((2R)-1-methoxy-2-propanyl)-5-(6-methoxy-2-pyridinyl)-4H-1,2,4-triazol-3-yl)-1-(2-propanyloxy)-2-propanesulfonamide] showed an EC50 of 0.32 nM.
`COc1cccc(-c2nnc(NS(=O)(=O)[C@@H](C)[C@H](OC)c3ncc(Cl)cn3)n2C[C@@H]2CCC[C@H](C)O2)n1` (single isomer, unassigned) [Example 307.0] was tested, and the EC50 was 8.8 nM.
`COCC(COC)n1c(NS(=O)(=O)[C@@H](C)[C@@H](OC(C)C)c2ncc(C)cn2)nnc1-c1cccc(OC)n1` [Example 104.0] gave an EC50 of 0.39 nM.
Work on `COC[C@H](C)n1c(NS(=O)(=O)[C@@H](C)[C@H](C)c2ncc(Cl)cn2)nnc1-c1cccc(OC)n1` [Example 174.0, (2S,3R)-3-(5-chloro-2-pyrimidinyl)-N-(4-((2S)-1-methoxy-2-propanyl)-5-(6-methoxy-2-pyridinyl)-4H-1,2,4-triazol-3-yl)-2-butanesulfonamide] yielded an EC50 of 3.3 nM.
`COc1cccc(-c2nnc(NS(=O)(=O)[C@@H](C)[C@H](OC)c3ncc(Cl)cn3)n2[C@@H](C)c2ccon2)n1` (single isomer, unassigned) [Example 265.0, (1R,2S)-1-(5-chloro-2-pyrimidinyl)-1-methoxy-N-(5-(6-methoxy-2-pyridinyl)-4-((1R)-1-(1,2-oxazol-3-yl)ethyl)-4H-1,2,4-triazol-3-yl)-2-propanesulfonamide or (1R,2S)-1-(5-chloro-2-pyrimidinyl)-1-methoxy-N-(5-(6-methoxy-2-pyridinyl)-4-((1S)-1-(1,2-oxazol-3-yl)ethyl)-4H-1,2,4-triazol-3-yl)-2-propanesulfonamide] showed an EC50 of 0.92 nM.
Molecule `COCC(COC)n1c(NS(=O)(=O)[C@@H](C)[C@H](OC)c2ncc(Cl)cn2)nnc1-c1ccccn1` [Example 14.0, (1R,2S)-1-(5-chloro-2-pyrimidinyl)-N-(4-(1,3-dimethoxy-2-propanyl)-5-(2-pyridinyl)-4H-1,2,4-triazol-3-yl)-1-methoxy-2-propanesulfonamiide] has an EC50 of 6.4 nM.
`COc1cccc(-c2nnc(NS(=O)(=O)[C@@H](C)[C@@H](OC(C)C)c3ncc(C)cn3)n2Cc2ccon2)n1` [Example 261.0, (1S,2S)-1-isopropoxy-N-(4-(isoxazol-3-ylmethyl)-5-(6-methoxypyridin-2-yl)-4H-1,2,4-triazol-3-yl)-1-(5-methylpyrimidin-2-yl)propane-2-sulfonamide] gave an EC50 of 5.2 nM.
In the case of `COc1cccc(-c2nnc(NS(=O)(=O)[C@@H](C)[C@H](OC)c3ncc(Cl)cn3)n2[C@@H](C)c2ncnn2C)n1` (single isomer, unassigned) [Example 249.0, (1R,2S)-1-(5-chloro-2-pyrimidinyl)-1-methoxy-N-(5-(6-methoxy-2-pyridinyl)-4-((1R)-1-(1-methyl-1H-1,2,4-triazol-5-yl)ethyl)-4H-1,2,4-triazol-3-yl)-2-propanesulfonamide or (1R,2S)-1-(5-chloro-2-pyrimidinyl)-1-methoxy-N-(5-(6-methoxy-2-pyridinyl)-4-((1S)-1-(1-methyl-1H-1,2,4-triazol-5-yl)ethyl)-4H-1,2,4-triazol-3-yl)-2-propanesulfonamide], the EC50 is reported as 3 nM.
In the case of `CC[C@@H](c1c(C)noc1C)n1c(NS(=O)(=O)[C@@H](C)[C@H](C)c2ncc(Cl)cn2)nnc1-c1cccc(OC)n1` (single isomer, unassigned) [Example 225.0, (2S,3R)-3-(5-chloro-2-pyrimidinyl)-N-(4-((1R)-1-(3,5-dimethyl-1,2-oxazol-4-yl)propyl)-5-(6-methoxy-2-pyridinyl)-4H-1,2,4-triazol-3-yl)-2-butanesulfonamide or (2S,3R)-3-(5-chloro-2-pyrimidinyl)-N-(4-((1S)-1-(3,5-dimethyl-1,2-oxazol-4-yl)propyl)-5-(6-methoxy-2-pyridinyl)-4H-1,2,4-triazol-3-yl)-2-butanesulfonamide], the EC50 is reported as 5.1 nM.
With `COc1cccc(-c2nnc(NS(=O)(=O)[C@@H](C)[C@H](OC)c3ncc(Cl)cn3)n2[C@@H]2CC[C@H]2OC)n1` (single isomer, unassigned) [Example 161.0, (1R,2S)-1-(5-Chloropyrimidin-2-yl)-1-methoxy-N-(4-((1R,2R)-2-methoxycyclobutyl)-5-(6-methoxypyridin-2-yl)-4H-1,2,4-triazol-3-yl)propane-2-sulfonamide or (1R,2S)-1-(5-chloropyrimidin-2-yl)-1-methoxy-N-(4-((1S,2S)-2-methoxycyclobutyl)-5-(6-methoxypyridin-2-yl)-4H-1,2,4-triazol-3-yl)propane-2-sulfonamide] the EC50 was 2.2 nM.
For `CC[C@H](c1c(C)noc1C)n1c(NS(=O)(=O)[C@@H](C)[C@H](OC)c2ncc(Cl)cn2)nnc1-c1cccc(OC)n1` (mixture of isomers) [Example 211.0, (1R,2S)-1-(5-chloro-2-pyrimidinyl)-N-(4-((1R)-1-(3,5-dimethyl-1,2-oxazol-4-yl)propyl)-5-(6-methoxy-2-pyridinyl)-4H-1,2,4-triazol-3-yl)-1-methoxy-2-propanesulfonamide and (1R,2S)-1-(5-chloro-2-pyrimidinyl)-N-(4-((1S)-1-(3,5-dimethyl-1,2-oxazol-4-yl)propyl)-5-(6-methoxy-2-pyridinyl)-4H-1,2,4-triazol-3-yl)-1-methoxy-2-propanesulfonamide], the EC50 was 1.8 nM.
For `COc1cccc(-c2nnc(NS(=O)(=O)[C@@H](C)[C@@H](OC(C)C)c3ncc(C)cn3)n2C[C@H]2CCCO2)n1` (racemic) [Example 277.0, (1S,2S)-1-isopropoxy-N-(5-(6-methoxypyridin-2-yl)-4-(((R)-tetrahydrofuran-2-yl)methyl)-4H-1,2,4-triazol-3-yl)-1-(5-methylpyrimidin-2-yl)propane-2-sulfonamide or (1S,2S)-1-isopropoxy-N-(5-(6-methoxypyridin-2-yl)-4-(((S)-tetrahydrofuran-2-yl)methyl)-4H-1,2,4-triazol-3-yl)-1-(5-methylpyrimidin-2-yl)propane-2-sulfonamide], the EC50 was 14 nM.
Work on `CC[C@H]([C@@H]1CCCCO1)n1c(NS(=O)(=O)[C@@H](C)[C@H](OC)c2ncc(C)cn2)nnc1-c1cccc(OC)n1` (single isomer, unassigned) [Example 329.0] yielded an EC50 of 1.4 nM.
`COC[C@@H](C)n1c(NS(=O)(=O)[C@@H](C)[C@H](OC)c2ncc(Cl)cn2)nnc1-c1cncc(C)c1` [Example 126.0] was tested, and the EC50 was 38 nM.
For `COc1cccc(-c2nnc(NS(=O)(=O)[C@@H](C)[C@@H](OC(C)C)c3ncc(C)cn3)n2C[C@H]2CCCCO2)n1` (single isomer, unassigned) [Example 300.0, (1S,2S)-1-isopropoxy-N-(5-(6-methoxypyridin-2-yl)-4-(((R)-tetrahydro-2H-pyran-2-yl)methyl)-4H-1,2,4-triazol-3-yl)-1-(5-methylpyrimidin-2-yl)propane-2-sulfonamide or (1S,2S)-1-isopropoxy-N-(5-(6-methoxypyridin-2-yl)-4-(((S)-tetrahydro-2H-pyran-2-yl)methyl)-4H-1,2,4-triazol-3-yl)-1-(5-methylpyrimidin-2-yl)propane-2-sulfonamide], the EC50 was 14 nM.
With `COc1cccc(-c2nnc(NS(=O)(=O)[C@@H](C)[C@H](OC)c3ncc(Cl)cn3)n2CC2CCC2)n1` [Example 73.0] the EC50 was 3 nM.
For `CC[C@H]([C@@H]1CCCCO1)n1c(NS(=O)(=O)[C@@H](C)[C@H](OC)c2ncc(Cl)cn2)nnc1-c1cccc(OC)n1` (single isomer, unassigned) [Example 327.0], the EC50 was 0.11 nM.
“(1R,2S)-1-(5-chloropyrimidin-2-yl)-1-methoxy-N-(5-(6-methoxypyridin-2-yl)-4-(((S)-oxetan-2-yl)methyl)-4H-1,2,4-triazol-3-yl)propane-2-sulfonamide or (1R,2S)-1-(5-chloropyrimidin-2-yl)-1-methoxy-N-(5-(6-methoxypyridin-2-yl)-4-(((R)-oxetan-2-yl)methyl)-4H-1,2,4-triazol-3-yl)propane-2-sulfonamide [Example 140.0]” showed an EC50 of 42 nM.
`CC[C@H]([C@@H]1CCCCO1)n1c(NS(=O)(=O)[C@@H](C)[C@H](OC)c2ncc(Cl)cn2)nnc1-c1cccc(OC)n1` (single isomer, unassigned) [Example 325.0] showed an EC50 of 0.33 nM.
Molecule `COCC(COC)n1c(NS(=O)(=O)[C@@H](C)[C@H](OC)c2ncc(C)cn2)nnc1-c1cccc(OC)n1` [Example 100.0] has an EC50 of 6.4 nM.
`COc1cccc(-c2nnc(NS(=O)(=O)[C@@H](C)[C@H](OC)c3ncc(Cl)cn3)n2C2(CF)CC2)n1` [Example 106.0] was tested, and the EC50 was 0.38 nM.
`COc1cccc(-c2nnc(NS(=O)(=O)[C@@H](C)[C@@H](OC(C)C)c3ncc(C)cn3)n2[C@@H](C)c2ncc(C)o2)n1` (single isomer, unassigned) [Example 242.0, (1S,2S)-N-(5-(6-methoxy-2-pyridinyl)-4-((1S)-1-(5-methyl-1,3-oxazol-2-yl)ethyl)-4H-1,2,4-triazol-3-yl)-1-(5-methyl-2-pyrimidinyl)-1-(2-propanyloxy)-2-propanesulfonamide or (1S,2S)-N-(5-(6-methoxy-2-pyridinyl)-4-((1S)-1-(5-methyl-1,3-oxazol-2-yl)ethyl)-4H-1,2,4-triazol-3-yl)-1-(5-methyl-2-pyrimidinyl)-1-(2-propanyloxy)-2-propanesulfonamide] gave an EC50 of 13 nM.

Source: US10689367B2, “Triazole pyridyl compounds as agonists of the APJ receptor” (AMGEN INC., priority 2016, dated 2020)
